# Reference: patent publication US11707474B2, “Methods for treating acute myeloid leukemia and related conditions” (GlycoMimetics, Inc., priority 2018, dated 2023)
# Where “and” joins values, the source holds several entries; their conditions need not be identical. Equal entries are not always repeated.
# Columns and labels:
# U937 = experiment: Systemic U-937 AML mouse survival model; format: in vivo, NOD/SCID mouse
# Method: A compound of Formula (I) in combination with cytarabine/DNR chemotherapy was evaluated in the systemic U-937 AML NOD/SCID mouse survival model.
# The U937 cell line was chosen because the cells express the E-selectin ligand and react with antibody HECA-452. After engraftment, mice were randomized into 4 groups (n=10/group) and treatment was initiated. The groups included a saline control group; a group administered the compound of Formula (I) at 40 mg/kg BID (i.e., 80 mg/kg per day) for 9 days, a group administered cytarabine at 300 mg/kg QD (i.e., 300 mg/kg per day) for 3 days and a single dose of DNR at 3 mg/kg; and a group administered the combined regimen of the compound of Formula (I) and chemotherapy (cytarabine and DNR).
# KG1 cells = experiment: Static adhesion of KG1 cells to E-selectin coated plates; format: cell-based, human; settings: added post-binding of 5-azacytidine treated KG1 cells
# Description: These findings indicate that hypomethylating agents, including 5-azacytidine, may increase the adhesion of leukemic blasts in the bone marrow and therefore hinder the intended anti-leukemic effect. This could explain a source of chemoresistance, and potential for relapse, in patients treated with hypomethylating agents.
# sE-selectin = experiment: Plasma soluble E-selectin ELISA during treatment; format: in vivo, human; settings: individual subjects; for sE-selectin AUEC Day 3 / sE-selectin AUEC Day 8 / sE-selectin AUEC Percent Change from Day 1, Day 3 / sE-selectin AUEC Percent Change from Day 1, Day 8: with MEC
# Method: Plasma sE-selectin was quantified using a commercially available sandwich format ELISA assay, in which a monoclonal antibody specific for sE-selectin has been pre-coated onto a microplate (Human sE-Selectin Platinum ELISA kit, eBioscience, cat. no. BMS205). Standards, samples and controls were pipetted into the wells of the microplate where they bind to the antibodies coated on the microplate. After a wash step, an HRP-conjugated anti-human sE-selectin antibody was added to the wells to bind the sE-selectin captured by the first antibody. After washing the plate wells to remove unbound HRP-conjugated anti-human sE-selectin antibody, a substrate solution reactive with HRP is added to the wells. Colored product formed in proportion to the amount of human sE-selectin present in the sample or standard. The color-producing reaction was stopped by addition of acid and absorbance of each well was measured at 450 nm. Six human serum samples from healthy donors served as the quality control samples. In addition, two control lyophilized plasma samples (high and low) included with the assay kit were also added to each run.
# This response was seen both in mean levels and Area-Under-Effect-Curve (“AUEC”). Decrease from baseline to Day 8 (at the end of 6 days of treatment with a compound of Formula (I), given concurrently with MEC chemotherapy) was highly significant (P<0.0001) with no dose response. FIG. 11 illustrates decreasing mean levels of plasma soluble E-selectin over the treatment period in all dose groups, where doses were BID (i.e., the 5, 10, and 20 mg/kg “Per Dose” amounts of a compound of Formula (I) correspond to dosages of 10, 20, and 40 mg/kg per day, respectively).
smiles,measurement,setting,value
CC[C@@H]1CC(C(=O)NCCNC(=O)CCOCCOCCOCCOCCOCCOCCOCCOCCOCCOCCOCCOC)C[C@@H](O[C@@H]2O[C@@H](CO)[C@H](O)C(O[C@@H](CC3CCCCC3)C(=O)O)C2NC(C)=O)C1OC1O[C@@H](C)C(O)[C@H](O)[C@@H]1O (stereo partly shown) [compound of Formula (I)],survival,U937; 40 mg/kg BID 9 days alone,does not extend survival beyond saline control
same,median survival time (MST),U937; 40 mg/kg BID 9 days combined with cytarabine/DNR,greater than 120 days
same,animals surviving to the end of the study,"U937; 40 mg/kg BID 9 days combined with cytarabine/DNR, n=10/group",five
same,uncoupling of adhesion,KG1 cells,~90%
same,sE-selectin AUEC Day 1,sE-selectin; 5 mg/kg per dose,"563.47 hrxng/mL and 1,605.18 hrxng/mL and 339.27 hrxng/mL and 328.40 hrxng/mL"
same,sE-selectin AUEC Day 3,sE-selectin; 5 mg/kg per dose,"494.30 hrxng/mL and 1,445.26 hrxng/mL and 275.71 hrxng/mL and 332.11 hrxng/mL"
same,sE-selectin AUEC Day 8,sE-selectin; 5 mg/kg per dose,440.68 hrxng/mL and 728.47 hrxng/mL and 156.25 hrxng/mL and 161.11 hrxng/mL
same,"sE-selectin AUEC Percent Change from Day 1, Day 3",sE-selectin; 5 mg/kg per dose,−12.28% and −9.96% and −18.74% and 1.13%
same,"sE-selectin AUEC Percent Change from Day 1, Day 8",sE-selectin; 5 mg/kg per dose,−21.79% and −54.62% and −53.95% and −50.94%
same,sE-selectin AUEC Day 1,sE-selectin; 10 mg/kg per dose,338.36 hrxng/mL and 707.63 hrxng/mL and 325.19 hrxng/mL and 269.90 hrxng/mL and 230.35 hrxng/mL
same,sE-selectin AUEC Day 3,sE-selectin; 10 mg/kg per dose,313.04 hrxng/mL and 981.09 hrxng/mL and 298.31 hrxng/mL and 202.99 hrxng/mL and 185.98 hrxng/mL
same,sE-selectin AUEC Day 8,sE-selectin; 10 mg/kg per dose,168.71 hrxng/mL and 218.03 hrxng/mL and 25.51 hrxng/mL and 103.74 hrxng/mL and 158.91 hrxng/mL
same,"sE-selectin AUEC Percent Change from Day 1, Day 3",sE-selectin; 10 mg/kg per dose,−7.48% and 38.64% and −8.26% and −24.79% and −19.26%
same,"sE-selectin AUEC Percent Change from Day 1, Day 8",sE-selectin; 10 mg/kg per dose,−50.14% and −69.19% and −92.15% and −61.57% and −31.01%
same,sE-selectin AUEC Day 1,sE-selectin; 20 mg/kg per dose,"2,206.19 hrxng/mL and 750.41 hrxng/mL and 202.19 hrxng/mL"
same,sE-selectin AUEC Day 3,sE-selectin; 20 mg/kg per dose,"1,743.61 hrxng/mL and 632.82 hrxng/mL and 163.18 hrxng/mL"
same,sE-selectin AUEC Day 8,sE-selectin; 20 mg/kg per dose,956.57 hrxng/mL and 294.47 hrxng/mL and 31.49 hrxng/mL
same,"sE-selectin AUEC Percent Change from Day 1, Day 3",sE-selectin; 20 mg/kg per dose,−20.97% and −15.67% and −19.30%
same,"sE-selectin AUEC Percent Change from Day 1, Day 8",sE-selectin; 20 mg/kg per dose,−56.64% and −60.76% and −84.43%
